Data from the supplement of paper PMC10331698.
± gives the standard deviation of the averaged measurements.

What was measured:
Experiment in all cases: level (log10 ratio to DMSO vehicle control); higher = higher biomarker level / cell amount than vehicle control
Settings in all cases: in DMSO
[1] = compound: C=CC(=O)OCCC(F)(F)C(F)(F)C(F)(F)C(F)(F)C(F)(F)C(F)(F)C(F)(F)C(F)(F)F [8:2 Fluorotelomer acrylate]
Experimental: (§1)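 BioMAP Diversity Plus panel of 12 human primary cell co-culture systems (3C, 4H, LPS, SAg, BT, BF4T, BE3C, CASM3C, HDF3CGF, KF3CT, MyoF, Mphg). Compounds were added 1 h before stimulation and left for 24 h (MyoF 48 h; BT 72 h for soluble read-outs or 6 d for IgG). Biomarkers were read by ELISA, cytotoxicity by SRB, PBMC viability and proliferation by Alamar Blue. Each well value was divided by the mean of 8 DMSO control wells on the same plate and log10 transformed; duplicate blinded samples were tested at 4 concentrations.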

Methotrexate = compound: CN(Cc1cnc2nc(N)nc(N)c2n1)c1ccc(C(=O)N[C@@H](CCC(=O)O)C(=O)O)cc1 [Methotrexate]
Experimental: as §1

[2] = compound: O=P(O)(O)CCC(F)(F)C(F)(F)C(F)(F)C(F)(F)C(F)(F)C(F)(F)F [2-(Perfluorohexyl)ethylphosphonic acid]
Experimental: as §1

[3] = compound: O=S(=O)(OCC(F)(F)F)C(F)(F)C(F)(F)C(F)(F)C(F)(F)F [2,2,2-Trifluoroethyl perfluorobutanesulfonate]
Experimental: as §1

Perfluoropinacol = compound: OC(C(F)(F)F)(C(F)(F)F)C(O)(C(F)(F)F)C(F)(F)F [Perfluoropinacol]
Experimental: as §1

[4] = compound: OCCCCC(F)(F)C(F)(F)C(F)(F)C(F)(F)F [4:4 Fluorotelomer alcohol]
Experimental: as §1

| Test System | level (log10) ([1]; 6700 nM) | level (log10) ([1]; 20000 nM) | level (log10) ([1]; 60000 nM) | level (log10) (Methotrexate; 1500 nM) | level (log10) (Methotrexate; 4400 nM) | level (log10) (Methotrexate; 13000 nM) | level (log10) (Methotrexate; 40000 nM) | level (log10) ([2]; 6700 nM) | level (log10) ([2]; 20000 nM) | level (log10) ([2]; 60000 nM) | level (log10) ([3]; 6700 nM) | level (log10) ([3]; 20000 nM) | level (log10) ([3]; 60000 nM) | level (log10) (Perfluoropinacol; 6700 nM) | level (log10) (Perfluoropinacol; 20000 nM) | level (log10) ([4]; 6700 nM) | level (log10) ([4]; 20000 nM) | level (log10) ([4]; 60000 nM) |
| --- | --- | --- | --- | --- | --- | --- | --- | --- | --- | --- | --- | --- | --- | --- | --- | --- | --- | --- |
| BF4T:CCL2/MCP-1 | -0.007 ± 0.038 | -0.0265 ± 0.015 | -0.026 ± 0.041 | 0.0115 ± 0.022 | 0.0135 ± 0.0035 | -0.022 ± 0.0028 | 0.0055 ± 0.029 | 0.001 ± 0.0028 | 0.0015 ± 0.023 | -0.009 ± 0.0028 | 0.024 ± 0.0028 | 0.0125 ± 0.005 | 0.017 ± 0.021 | 0.0435 ± 0.032 | -0.0175 ± 0.015 | 0.0115 ± 0.044 | 0.007 ± 0.024 | 0.048 ± 0.099 |
| BT:sTNF-alpha | 0.128 ± 0.0057 | 0.034 ± 0.027 | 0.159 ± 0.14 | -0.067 ± 0.072 | -0.137 ± 0.11 | -0.0565 ± 0.023 | -0.0905 ± 0.1 | 0.114 ± 0.04 | 0.0475 ± 0.018 | 0.048 ± 0.24 | 0.11 ± 0.076 | 0.165 ± 0.0021 | 0.189 ± 0.026 | 0.0425 ± 0.061 | -0.146 ± 0.015 | -0.0875 ± 0.033 | -0.046 ± 0.13 | -0.0085 ± 0.17 |
| BE3C:CXCL11/I-TAC | -0.019 ± 0.011 | -0.0115 ± 0.013 | 0.003 ± 0.011 | 0.017 ± 0.027 | 0.0135 ± 0.029 | 0.0225 ± 0.015 | 0.016 ± 0.031 | -0.0205 ± 0.0078 | -0.0235 ± 0.0064 | -0.0415 ± 0.032 | 0.017 ± 0.0057 | -0.003 ± 0.0085 | 0.006 ± 0.0085 | 0.0435 ± 0.00071 | 0.0115 ± 0.021 | -0.013 ± 0.0028 | -0.0125 ± 0.00071 | -0.0025 ± 0.015 |
| 4H:CD62P/P-selectin | -0.018 ± 0.0028 | -0.092 ± 0.0028 | -0.047 ± 0.064 | -0.019 ± 0.0028 | -0.0195 ± 0.032 | -0.0045 ± 0.086 | -0.0055 ± 0.073 | 0.022 ± 0.0042 | -0.01 ± 0.017 | -0.0585 ± 0.021 | -0.0365 ± 0.016 | -0.034 ± 0.0085 | -0.0525 ± 0.015 | -0.0165 ± 0.022 | -0.217 ± 0.06 | 0.023 ± 0.0028 | 0.019 ± 0.013 | 0.0115 ± 0.005 |
| 3C:Proliferation | -0.035 ± 0.037 | -0.009 ± 0.048 | -0.0155 ± 0.005 | 0.0185 ± 0.056 | 0.0495 ± 0.013 | 0.0285 ± 0.019 | -0.086 ± 0.04 | -0.066 ± 0.057 | -0.035 ± 0.017 | -0.101 ± 0.081 | 0.002 ± 0.062 | -0.025 ± 0.04 | -0.0475 ± 0.028 | -0.151 ± 0.0028 | -0.441 ± 0.086 | -0.018 ± 0.031 | 0.0115 ± 0.011 | -0.009 ± 0.054 |
| BF4T:CD90 | -0.0205 ± 0.018 | -0.019 ± 0.0099 | -0.0035 ± 0.021 | 0.001 ± 0.0014 | -0.0145 ± 0.0035 | -0.006 ± 0.016 | 0.0235 ± 0.012 | -0.0185 ± 0.023 | -0.0165 ± 0.005 | -0.008 ± 0.031 | 0.004 ± 0.0099 | -0.007 ± 0.023 | -0.009 ± 0.011 | -0.015 ± 0.017 | -0.024 ± 0.0071 | -0.009 ± 0.013 | -0.0155 ± 0.012 | 0.0005 ± 0.018 |
| BT:B cell Proliferation | 0.0155 ± 0.0021 | 0.0035 ± 0.00071 | -0.0005 ± 0.04 | -0.0915 ± 0.016 | -0.1 ± 0.0085 | -0.099 ± 0.0071 | -0.052 ± 0.037 | 0.031 ± 0.0071 | 0.0135 ± 0.00071 | 0.051 ± 0.021 | 0.019 ± 0.0042 | 0.0295 ± 0.019 | 0.024 ± 0.023 | -0.0065 ± 0.0064 | -0.085 ± 0.034 | 0.0045 ± 0.018 | 0.005 ± 0.027 | -0.0015 ± 0.016 |
| 4H:CD87/uPAR | -0.045 ± 0.051 | -0.03 ± 0.011 | -0.064 ± 0.069 | 0.0245 ± 0.029 | -0.014 ± 0.031 | -0.0105 ± 0.033 | 0.0185 ± 0.03 | -0.0345 ± 0.018 | -0.0165 ± 0.015 | -0.0495 ± 0.011 | 0.0005 ± 0.011 | 0.001 ± 0.0099 | -0.0095 ± 0.039 | -0.117 ± 0.022 | -0.226 ± 0.029 | -0.0385 ± 0.029 | -0.044 ± 0.021 | -0.0195 ± 0.013 |
| SAg:CD62E/E-Selectin | -0.0125 ± 0.00071 | 0.0205 ± 0.03 | -0.009 ± 0.025 | 0.007 ± 0.011 | -0.0015 ± 0.032 | 0.019 ± 0.016 | -0.0075 ± 0.018 | 0.004 ± 0.0042 | 0.0015 ± 0.0021 | 0.0635 ± 0.021 | -0.0065 ± 0.015 | 0.006 ± 0.018 | 0.03 ± 0.013 | 0.008 ± 0.0071 | -0.15 ± 0.0021 | -0.001 ± 0.0014 | -0.01 ± 0.0071 | -0.014 ± 0.028 |
| BE3C:HLA-DR | -0.0045 ± 0.011 | 0.009 ± 0.017 | 0.019 ± 0.034 | -0.0105 ± 0.00071 | -0.0235 ± 0.0064 | 0.013 ± 0.011 | -0.0145 ± 0.022 | -0.0045 ± 0.018 | -0.012 ± 0.021 | 0.01 ± 0.038 | -0.001 ± 0.011 | 0.005 ± 0.0085 | -0.011 ± 0.0014 | -0.0145 ± 0.0064 | -0.0565 ± 0.019 | -0.0005 ± 0.018 | -0.0075 ± 0.0064 | -0.0035 ± 0.016 |
| 3C:CXCL9/MIG | -0.0135 ± 0.011 | -0.005 ± 0.0042 | 0.01 ± 0.018 | 0.0075 ± 0.0092 | 0.001 ± 0.016 | -0.0015 ± 0.005 | 0.0145 ± 0.0064 | -0.004 ± 0.0071 | -0.003 ± 0.0014 | 0.01 ± 0.025 | 0.0075 ± 0.043 | 0.0045 ± 0.026 | 0.0025 ± 0.022 | -0.005 ± 0.013 | -0.014 ± 0.0085 | 0.0075 ± 0.0035 | -0.01 ± 0.0014 | 0.007 ± 0.0028 |
| BE3C:EGFR | -0.0155 ± 0.0021 | -0.015 ± 0.013 | 0.003 ± 0.025 | 0.023 ± 0.028 | 0.002 ± 0.013 | 0.0085 ± 0.0092 | 0.0155 ± 0.037 | -0.0045 ± 0.0021 | -0.015 ± 0.014 | 0.0005 ± 0.022 | 0.006 ± 0.0028 | 0.007 | 0.0025 ± 0.00071 | 0.0065 ± 0.00071 | -0.027 ± 0.0085 | 0.025 ± 0.0085 | 0.022 ± 0.038 | 0.02 ± 0.065 |
| BE3C:CD87/uPAR | 0.03 ± 0.041 | 0.027 ± 0.035 | 0.0595 ± 0.049 | 0.0225 ± 0.005 | -0.0145 ± 0.011 | 0 ± 0.016 | 0.0145 ± 0.015 | -0.035 ± 0.065 | -0.029 ± 0.047 | -0.0125 ± 0.12 | -0.048 ± 0.0099 | -0.024 ± 0.018 | -0.0355 ± 0.026 | -0.0675 ± 0.019 | -0.231 ± 0.016 | 0.0075 ± 0.03 | -0.025 ± 0.016 | 0.0065 ± 0.033 |
| BE3C:CXCL10/IP-10 | -0.0215 ± 0.015 | -0.0165 ± 0.023 | 0.0005 ± 0.05 | 0.003 ± 0.051 | 0.0105 ± 0.032 | 0.0195 ± 0.019 | 0.011 ± 0.038 | -0.056 ± 0.058 | -0.057 ± 0.067 | -0.0455 ± 0.09 | 0.021 ± 0.0057 | 0.003 ± 0.0028 | 0.011 ± 0.011 | -0.0315 ± 0.0035 | -0.118 ± 0.0071 | -0.0035 ± 0.0021 | 0 | 0.014 ± 0.017 |
